Measured values taken from patent publication US20220273683A1, “BORON-CONTAINING SMALL MOLECULES” (Bill & Melinda Gates Foundation, priority 2016, published 2022).
Converted amounts (≈) assume the structure as drawn.

Tests used:
[1] = system: Staphylococcus aureus, MRSA (ATCC 33591); assay: Antibacterial MIC assay (microbroth dilution, CLSI); assay type: cell-based; conditions: 35° C., 16-20 hours
Source text: (§1) All MIC testing of bacteria followed the Clinical and Laboratory Standards Institute (CLSI) guidelines for antimicrobial testing of aerobic bacteria (Methods for Dilution Antimicrobial Susceptibility Tests for Bacteria that Grow Aerobically; Approved Standard—Tenth Edition, M07-A10; Performance Standards for Antimicrobial Susceptibility Testing; Twenty-fifth Informational Supplement, M100-S25).
(§2) Briefly, the microbroth dilution MIC method was used to quantitatively measure the in vitro antibacterial activity of a compound against a given bacterial isolate. The following bacterial strains were evaluated: Staphylococcus aureus, MRSA (ATCC 33591) and Streptococcus pneumoniae (ATCC 49619). Bacteria were grown in cation-adjusted Mueller-Hinton broth, with additions as required per species growth requirements (e.g. 3% lysed horse blood for fastidious organisms such as S. pneumoniae). A direct colony suspension in saline was prepared from colonies on an overnight agar plate to achieve a turbidity equivalent to 0.5 McFarland standard, which was subsequently diluted into the assay plate to achieve 5×10^5 CFU/mL. Assays plates were prepared by 2-fold dilution of compound across the plate and included a positive growth control.

[2] = system: Streptococcus pneumoniae (ATCC 49619); assay: as above; assay type: cell-based; conditions: 35° C., 16-20 hours; for MIC Streptococcus pneumoniae (ATCC 49619): 3% lysed horse blood
Source text: as §1, §2

Row | MIC Staphylococcus aureus, MRSA (ATCC 33591) [1] | MIC Streptococcus pneumoniae (ATCC 49619) [2] | SMILES | MIC ([1]; Staphylococcus aureus) | MIC ([2]; Streptococcus pneumoniae, ATCC49619, 3% lysed horse blood)
1 | B (0.5-2 is B) | B (0.5-2 is B) | CNC(=O)/C=C/[C@]1(C)C[C@@H](OC(=O)COc2ccc3c(c2F)B(O)OC3)[C@]2(C)[C@H](C)CC[C@]3(CCC(=O)[C@H]32)[C@@H](C)[C@@H]1O [Compound 15, (3aR,4R,5R,7S,8S,9R,9aS,12R)-8-hydroxy-4,7,9,12-tetramethyl-7-((E)-3-(methylamino)-3-oxoprop-1-en-1-yl)-3-oxodecahydro-4,9a-propanocyclopenta[8]annulen-5-yl2-((7-fluoro-1-hydroxy-1,3-dihydrobenzo[c][1,2]oxaborol-6-yl)oxy)acetate] | – | –
2 | C (4-32 is C) | B (0.5-2 is B) | CONC(=O)/C=C/[C@]1(C)C[C@@H](OC(=O)COc2ccc3c(c2F)B(O)OC3)[C@]2(C)[C@H](C)CC[C@]3(CCC(=O)[C@H]32)[C@@H](C)[C@@H]1O [Compound 16, (3aR,4R,5R,7S,8S,9R,9aS,12R)-8-hydroxy-7-((E)-3-(methoxyamino)-3-oxoprop-1-en-1-yl)-4,7,9,12-tetramethyl-3-oxodecahydro-4,9a-propanocyclopenta[8]annulen-5-yl2-((7-fluoro-1-hydroxy-1,3-dihydrobenzo[c][1,2]oxaborol-6-yl)oxy)acetate] | – | –
3 | C (4-32 is C) | B (0.5-2 is B) | C[C@@H]1CC[C@@]23CCC(=O)[C@H]2[C@]1(C)[C@H](OC(=O)COc1ccc2c(c1F)B(O)OC2)C[C@@](C)(/C=C/C(=O)NN)[C@@H](O)[C@@H]3C [Compound 18, (3aR,4R,5R,7S,8S,9R,9aS,12R)-7-((E)-3-hydrazinyl-3-oxoprop-1-en-1-yl)-8-hydroxy-4,7,9,12-tetramethyl-3-oxodecahydro-4,9a-propanocyclopenta[8]annulen-5-yl2-((7-fluoro-1-hydroxy-1,3-dihydrobenzo[c][1,2]oxaborol-6-yl)oxy)acetate] | – | –
4 | A (MIC of ≤0.25 is A) | B (0.5-2 is B) | CC[C@]1(C)C[C@@H](OC(=O)COc2ccc3c(c2F)B(O)OC3)[C@]2(C)[C@H](C)CC[C@]3(CCC(=O)[C@H]32)[C@@H](C)[C@@H]1O [Compound 19, (3aR,4R,5R,7R,8S,9R,9aS,12R)-7-ethyl-8-hydroxy-4,7,9,12-tetramethyl-3-oxodecahydro-4,9a-propanocyclopenta[8]annulen-5-yl2-((7-fluoro-1-hydroxy-1,3-dihydrobenzo[c][1,2]oxaborol-6-yl)oxy)acetate] | – | –
5 | A (MIC of ≤0.25 is A) | B (0.5-2 is B) | C=CC[C@]1(C)C[C@@H](OC(=O)COc2ccc3c(c2F)B(O)OC3)[C@]2(C)[C@H](C)CC[C@]3(CCC(=O)[C@H]32)[C@@H](C)[C@@H]1O [Compound 21, (3aR,4R,5R,7R,8S,9R,9aS,12R)-7-allyl-8-hydroxy-4,7,9,12-tetramethyl-3-oxodecahydro-4,9a-propanocyclopenta[8]annulen-5-yl2-((7-fluoro-1-hydroxy-1,3-dihydrobenzo[c][1,2]oxaborol-6-yl)oxy)acetate] | – | –
6 | A (MIC of ≤0.25 is A) | B (0.5-2 is B) | C#CC[C@]1(C)C[C@@H](OC(=O)COc2ccc3c(c2F)B(O)OC3)[C@]2(C)[C@H](C)CC[C@]3(CCC(=O)[C@H]32)[C@@H](C)[C@@H]1O [Compound 22, (3aR,4R,5R,7R,8S,9R,9aS,12R)-8-hydroxy-4,7,9,12-tetramethyl-3-oxo-7-(prop-2-yn-1-yl)decahydro-4,9a-propanocyclopenta[8]annulen-5-yl2-((7-fluoro-1-hydroxy-1,3-dihydrobenzo[c][1,2]oxaborol-6-yl)oxy)acetate] | – | –
7 | A (MIC of ≤0.25 is A) | C (4-32 is C) | C[C@@H]1CC[C@@]23CCC(=O)[C@H]2[C@]1(C)[C@H](OC(=O)COc1ccc2c(c1F)B(O)OC2)C[C@@](C)(CO)[C@@H](O)[C@@H]3C [Compound 23, (3aR,4R,5R,7S,8S,9R,9aS,12R)-8-hydroxy-7-(hydroxymethyl)-4,7,9,12-tetramethyl-3-oxodecahydro-4,9a-propanocyclopenta[8]annulen-5-yl2-((7-fluoro-1-hydroxy-1,3-dihydrobenzo[c][1,2]oxaborol-6-yl)oxy)acetate] | – | –
8 | A (MIC of ≤0.25 is A) | C (4-32 is C) | COC[C@]1(C)C[C@@H](OC(=O)COc2ccc3c(c2F)B(O)OC3)[C@]2(C)[C@H](C)CC[C@]3(CCC(=O)[C@H]32)[C@@H](C)[C@@H]1O [Compound 24, (3aR,4R,5R,7S,8S,9R,9aS,12R)-8-hydroxy-7-(methoxymethyl)-4,7,9,12-tetramethyl-3-oxodecahydro-4,9a-propanocyclopenta[8]annulen-5-yl2-((7-fluoro-1-hydroxy-1,3-dihydrobenzo[c][1,2]oxaborol-6-yl)oxy)acetate] | – | –

The remaining lines, values behind:

Row | SMILES | MIC Staphylococcus aureus, MRSA (ATCC 33591) [1] | MIC Streptococcus pneumoniae (ATCC 49619) [2] | MIC ([1]; Staphylococcus aureus) | MIC ([2]; Streptococcus pneumoniae, ATCC49619, 3% lysed horse blood)
9 | C[C@@H]1CC[C@@]23CCC(=O)[C@H]2[C@]1(C)[C@H](OC(=O)COc1ccc2c(c1F)B(O)OC2)C[C@@](C)(CCC(=O)N1CCC(O)C1)[C@@H](O)[C@@H]3C (stereo partly drawn) [Compound 7, (3aR,4R,5R,7R,8S,9R,9aS,12R)-8-hydroxy-7-(3-(3-hydroxypyrrolidin-1-yl)-3-oxopropyl)-4,7,9,12-tetramethyl-3-oxodecahydro-4,9a-propanocyclopenta[8]annulen-5-yl2-((7-fluoro-1-hydroxy-1,3-dihydrobenzo[c][1,2]oxaborol-6-yl)oxy)acetate] | C (4-32 is C) | B (0.5-2 is B) | – | –
10 | C[C@@H]1CC[C@@]23CCC(=O)[C@H]2[C@]1(C)[C@H](OC(=O)COc1ccc2c(c1F)B(O)OC2)C[C@@](C)(CCC(=O)N1CC[C@H](O)C1)[C@@H](O)[C@@H]3C [Compound 8, (3aR,4R,5R,7R,8S,9R,9aS,12R)-8-hydroxy-7-(3-((S)-3-hydroxypyrrolidin-1-yl)-3-oxopropyl)-4,7,9,12-tetramethyl-3-oxodecahydro-4,9a-propanocyclopenta[8]annulen-5-yl2-((7-fluoro-1-hydroxy-1,3-dihydrobenzo[c][1,2]oxaborol-6-yl)oxy)acetate] | C (4-32 is C) | B (0.5-2 is B) | – | –
11 | C[C@@H]1CC[C@@]23CCC(=O)[C@H]2[C@]1(C)[C@H](OC(=O)COc1ccc2c(c1F)B(O)OC2)C[C@@]1(C)CC(O)O[C@H]1[C@@H]3C (stereo partly drawn) [Compound 9, (3aS,5R,6R,6aR,9aS,10R,10aS,13R)-2-hydroxy-3a,6,10,13-tetramethyl-7-oxododecahydro-6,9a-propanocyclopenta[6,7]cycloocta[1,2-b]furan-5-yl2-((7-fluoro-1-hydroxy-1,3-dihydrobenzo[c][1,2]oxaborol-6-yl)oxy)acetate] | C (4-32 is C) | C (4-32 is C) | – | –
12 | C[C@@H]1CC[C@@]23CCC(=O)[C@H]2[C@]1(C)[C@H](OC(=O)COc1ccc2c(c1F)B(O)OC2)C[C@@](C)(Cc1ccccc1)[C@@H](O)[C@@H]3C [Compound 10, (3aR,4R,5R,7R,8S,9R,9aS,12R)-7-benzyl-8-hydroxy-4,7,9,12-tetramethyl-3-oxodecahydro-4,9a-propanocyclopenta[8]annulen-5-yl2-((7-fluoro-1-hydroxy-1,3-dihydrobenzo[c][1,2]oxaborol-6-yl)oxy)acetate] | A (MIC of ≤0.25 is A) | B (0.5-2 is B) | – | –
13 | C[C@@H]1CC[C@@]23CCC(=O)[C@H]2[C@]1(C)[C@H](OC(=O)COc1ccc2c(c1F)B(O)OC2)C[C@@](C)(CCl)[C@@H](O)[C@@H]3C [Compound 11, (3aR,4R,5R,7R,8S,9R,9aS,12R)-7-(chloromethyl)-8-hydroxy-4,7,9,12-tetramethyl-3-oxodecahydro-4,9a-propanocyclopenta[8]annulen-5-yl2-((7-fluoro-1-hydroxy-1,3-dihydrobenzo[c][1,2]oxaborol-6-yl)oxy)acetate] | A (MIC of ≤0.25 is A) | B (0.5-2 is B) | – | –
14 | C[C@@H]1CC[C@@]23CCC(=O)[C@H]2[C@]1(C)[C@H](OC(=O)COc1ccc2c(c1F)B(O)OC2)C[C@@](C)(/C=C/C(N)=O)[C@@H](O)[C@@H]3C [Compound 14, (3aR,4R,5R,7S,8S,9R,9aS,12R)-7-((E)-3-amino-3-oxoprop-1-en-1-yl)-8-hydroxy-4,7,9,12-tetramethyl-3-oxodecahydro-4,9a-propanocyclopenta[8]annulen-5-yl2-((7-fluoro-1-hydroxy-1,3-dihydrobenzo[c][1,2]oxaborol-6-yl)oxy)acetate] | B (0.5-2 is B) | B (0.5-2 is B) | – | –
15 | C[C@@H]1CC[C@@]23CCC(=O)[C@H]2[C@]1(C)[C@H](OC(=O)COc1ccc2c(c1F)B(O)OC2)C[C@@](C)(/C=C/C(=O)NNC(=O)OC(C)(C)C)[C@@H](O)[C@@H]3C [Compound 17, tert-butyl 2-((E)-3-((3aR,4R,5R,7S,8S,9R,9aS,12R)-5-(2-((7-fluoro-1-hydroxy-1,3-dihydrobenzo[c][1,2]oxaborol-6-yl)oxy)acetoxy)-8-hydroxy-4,7,9,12-tetramethyl-3-oxodecahydro-4,9a-propanocyclopenta[8]annulen-7-yl)acryloyl)hydrazine-1-carboxylate] | – | – | 4 to 32 µg/mL (≈ 5.83 to 46.6 µM) | 0.5 to 2 µg/mL (≈ 0.728 to 2.91 µM)
